Measured values published in PMC5218480 (PLoS ONE, 2017).

Tested on: MV-4-11 cells
Assay: Gene expression microarray analysis (Affymetrix PrimeView) and GSEA
Format: cell-based, human
Parameters: RFU PODN (11730768_x_at) / Fold change /veh PODN (11730768_x_at) / RFU LINC00158 (11744669_a_at) / Fold change /veh LINC00158 (11744669_a_at) / RFU DUSP10 (11751237_a_at) / Fold change /veh DUSP10 (11751237_a_at) / RFU ID3 (11757404_x_at) / Fold change /veh ID3 (11757404_x_at) / RFU PLEKHG5 (11737974_s_at) / Fold change /veh PLEKHG5 (11737974_s_at) / RFU LRRC4B (11730491_at) / Fold change /veh LRRC4B (11730491_at) / RFU GIMAP4 (11747438_a_at) / Fold change /veh GIMAP4 (11747438_a_at) / RFU KRT8 (11758183_x_at) / Fold change /veh KRT8 (11758183_x_at) / RFU CNN1 (11734310_a_at) / Fold change /veh CNN1 (11734310_a_at) / RFU VPS37D (11726825_at) / Fold change /veh VPS37D (11726825_at) / RFU C10orf10 (11716522_x_at) / Fold change /veh C10orf10 (11716522_x_at) / RFU KIR2DL2 /// KIR2DL4 /// KIR2DL5A /// KIR2DL5B /// KIR2DS1 /// KIR2DS2 /// KIR2DS3 /// KIR2DS4 /// KIR3DL3 /// KIR3DL3 /// KIR3DS1 (11738374_at) / Fold change /veh KIR2DL2 /// KIR2DL4 /// KIR2DL5A /// KIR2DL5B /// KIR2DS1 /// KIR2DS2 /// KIR2DS3 /// KIR2DS4 /// KIR3DL3 /// KIR3DL3 /// KIR3DS1 (11738374_at) / RFU C1QL1 (11718748_at) / Fold change /veh C1QL1 (11718748_at) / RFU TMPRSS4 (11747572_a_at) / Fold change /veh TMPRSS4 (11747572_a_at) / RFU HAMP (11756126_x_at) / Fold change /veh HAMP (11756126_x_at) / RFU RNFT2 (11725882_a_at) / Fold change /veh RNFT2 (11725882_a_at) / RFU NR4A2 (11747474_a_at) / Fold change /veh NR4A2 (11747474_a_at) / RFU ABCC12 (11746883_a_at) / Fold change /veh ABCC12 (11746883_a_at) / RFU TMEM136 (11760407_x_at) / Fold change /veh TMEM136 (11760407_x_at) / RFU CLDN22 /// WWC2 (11732394_at) / Fold change /veh CLDN22 /// WWC2 (11732394_at) / RFU HLA-DPB1 (11760878_x_at) / Fold change /veh HLA-DPB1 (11760878_x_at) / RFU SPINT1 (11716480_a_at) / Fold change /veh SPINT1 (11716480_a_at) / RFU GAP43 (11754022_s_at) / Fold change /veh GAP43 (11754022_s_at) / RFU A4GNT (11735810_at) / Fold change /veh A4GNT (11735810_at) / RFU PRB3 (11715151_x_at) / Fold change /veh PRB3 (11715151_x_at) / RFU TUBB4B (11761932_at) / Fold change /veh TUBB4B (11761932_at) / RFU CAPN14 (11732068_a_at) / Fold change /veh CAPN14 (11732068_a_at) / RFU TMCC2 (11721928_a_at) / Fold change /veh TMCC2 (11721928_a_at) / RFU IRGQ (11745062_a_at) / Fold change /veh IRGQ (11745062_a_at) / RFU FAM174B (11720279_a_at) / Fold change /veh FAM174B (11720279_a_at) / RFU TMPRSS4 (11748680_a_at) / Fold change /veh TMPRSS4 (11748680_a_at) / RFU FAM212B (11763350_a_at) / Fold change /veh FAM212B (11763350_a_at) / RFU PLEKHG5 (11743358_a_at) / Fold change /veh PLEKHG5 (11743358_a_at) / RFU ZSCAN30 (11745921_a_at) / Fold change /veh ZSCAN30 (11745921_a_at) / RFU CMKLR1 (11741424_a_at) / Fold change /veh CMKLR1 (11741424_a_at) / RFU LOC101060620 /// MAPK8IP1 (11723275_at) / Fold change /veh LOC101060620 /// MAPK8IP1 (11723275_at) / RFU SPTSSB (11747773_x_at) / Fold change /veh SPTSSB (11747773_x_at) / RFU PRSS12 (11739890_at) / Fold change /veh PRSS12 (11739890_at) / RFU BIN1 (11741810_x_at) / Fold change /veh BIN1 (11741810_x_at) / RFU WNT11 (11732464_a_at) / Fold change /veh WNT11 (11732464_a_at) / RFU C10orf10 (11716521_a_at) / Fold change /veh C10orf10 (11716521_a_at) / RFU C5orf56 (11738089_at) / Fold change /veh C5orf56 (11738089_at) / RFU CYB561 (11721691_x_at) / Fold change /veh CYB561 (11721691_x_at) / RFU ANKRD19P (11752326_a_at) / Fold change /veh ANKRD19P (11752326_a_at) / RFU OR2T12 /// OR2T33 /// OR2T8 (11738714_s_at) / Fold change /veh OR2T12 /// OR2T33 /// OR2T8 (11738714_s_at) / RFU VCAN (11748164_a_at) / Fold change /veh VCAN (11748164_a_at) / RFU JSRP1 (11732532_at) / Fold change /veh JSRP1 (11732532_at) / RFU KRTAP10-11 (11738290_x_at) / Fold change /veh KRTAP10-11 (11738290_x_at) / RFU MYO3A (11730013_a_at) / Fold change /veh MYO3A (11730013_a_at) / RFU EBF3 (11725865_a_at) / Fold change /veh EBF3 (11725865_a_at) / RFU CAMK2N1 (11719241_x_at) / Fold change /veh CAMK2N1 (11719241_x_at) / RFU C5orf56 (11738088_a_at) / Fold change /veh C5orf56 (11738088_a_at) / RFU OLFML3 (11715873_a_at) / Fold change /veh OLFML3 (11715873_a_at) / RFU LOC100653217 /// NTM (11731650_a_at) / Fold change /veh LOC100653217 /// NTM (11731650_a_at) / RFU MAPK11 (11762145_a_at) / Fold change /veh MAPK11 (11762145_a_at) / RFU FIZ1 (11724087_x_at) / Fold change /veh FIZ1 (11724087_x_at) / RFU OASL (11726364_x_at) / Fold change /veh OASL (11726364_x_at) / RFU SOX15 (11748057_x_at) / Fold change /veh SOX15 (11748057_x_at) / RFU CD79A (11719716_a_at) / Fold change /veh CD79A (11719716_a_at) / RFU HIST1H1D (11736915_at) / Fold change /veh HIST1H1D (11736915_at) / RFU CASKIN2 (11723855_a_at) / Fold change /veh CASKIN2 (11723855_a_at) / RFU LOC730098 (11760151_x_at) / Fold change /veh LOC730098 (11760151_x_at) / RFU OR4N2 (11742367_at) / Fold change /veh OR4N2 (11742367_at) / RFU PRRT2 (11749266_a_at) / Fold change /veh PRRT2 (11749266_a_at) / RFU SNX32 (11753110_a_at) / Fold change /veh SNX32 (11753110_a_at) / RFU CDHR5 (11726645_a_at) / Fold change /veh CDHR5 (11726645_a_at) / RFU RCAN1 (11760418_a_at) / Fold change /veh RCAN1 (11760418_a_at) / RFU FAM167A (11723789_a_at) / Fold change /veh FAM167A (11723789_a_at) / RFU FAM26E (11764081_at) / Fold change /veh FAM26E (11764081_at) / RFU ISYNA1 (11749810_s_at) / Fold change /veh ISYNA1 (11749810_s_at) / RFU ACY1 (11761880_at) / Fold change /veh ACY1 (11761880_at) / RFU 11764098_at / Fold change /veh 11764098_at / RFU SAMD14 (11745864_x_at) / Fold change /veh SAMD14 (11745864_x_at) / RFU NPB (11741838_a_at) / Fold change /veh NPB (11741838_a_at) / RFU TMPRSS6 (11731388_a_at) / Fold change /veh TMPRSS6 (11731388_a_at) / RFU KRTAP10-2 (11738614_at) / Fold change /veh KRTAP10-2 (11738614_at) / RFU ARHGAP8 /// PRR5-ARHGAP8 (11727945_x_at) / Fold change /veh ARHGAP8 /// PRR5-ARHGAP8 (11727945_x_at) / RFU KRTAP5-7 /// NADSYN1 (11734609_at) / Fold change /veh KRTAP5-7 /// NADSYN1 (11734609_at) / RFU RASL12 (11751679_a_at) / Fold change /veh RASL12 (11751679_a_at) / RFU CDKN2B (11736163_a_at) / Fold change /veh CDKN2B (11736163_a_at) / RFU PRF1 (11729649_at) / Fold change /veh PRF1 (11729649_at) / RFU, ZNF638 /// ZNF638-IT1 / Fold change vs veh, ZNF638 /// ZNF638-IT1 / RFU, PANK3 / Fold change vs veh, PANK3 / RFU, SH3YL1 / Fold change vs veh, SH3YL1 / RFU, ZEB2 / Fold change vs veh, ZEB2 / RFU, NRIP1 / Fold change vs veh, NRIP1 / RFU, PTTG1IP / Fold change vs veh, PTTG1IP / RFU, CAPN2 / Fold change vs veh, CAPN2 / RFU, MED14 / Fold change vs veh, MED14 / RFU, SNORA58 / Fold change vs veh, SNORA58 / RFU, C1orf63 / Fold change vs veh, C1orf63 / RFU, LRRFIP1 / Fold change vs veh, LRRFIP1 / RFU, NDUFAF7 / Fold change vs veh, NDUFAF7 / RFU, SLC12A2 / Fold change vs veh, SLC12A2 / RFU, IBTK / Fold change vs veh, IBTK / RFU, ESF1 / Fold change vs veh, ESF1 / Fold change vs veh, TMEM50B / RFU, TAOK1 / Fold change vs veh, TAOK1 / RFU, ACBD3 / Fold change vs veh, ACBD3 / RFU, TMA16 / Fold change vs veh, TMA16 / RFU, RWDD3 / Fold change vs veh, RWDD3 / RFU, BCAT1 / Fold change vs veh, BCAT1 / RFU, EDEM3 / Fold change vs veh, EDEM3 / RFU, TMEM33 / Fold change vs veh, TMEM33 / RFU, WDR75 / Fold change vs veh, WDR75 / RFU, AHCTF1 / Fold change vs veh, AHCTF1 / RFU, TFRC / Fold change vs veh, TFRC / RFU, ZDHHC17 / Fold change vs veh, ZDHHC17 / RFU, NOM1 / Fold change vs veh, NOM1 / RFU, ARL8B / Fold change vs veh, ARL8B / RFU, ZBTB11 / Fold change vs veh, ZBTB11 / RFU, TAMM41 / Fold change vs veh, TAMM41 / RFU, KIAA1704 /// LOC100996395 / Fold change vs veh, KIAA1704 /// LOC100996395 / RFU, ING1 / Fold change vs veh, ING1 / RFU, TRMT61B / Fold change vs veh, TRMT61B / RFU, FUBP3 / Fold change vs veh, FUBP3 / RFU, TP53 / Fold change vs veh, TP53 / RFU, TNKS2 / Fold change vs veh, TNKS2 / RFU, ZFP14 / Fold change vs veh, ZFP14 / RFU, ACTR2 / Fold change vs veh, ACTR2 / RFU, PPP3R1 / Fold change vs veh, PPP3R1 / RFU, PIK3R1 / Fold change vs veh, PIK3R1 / RFU, HNRNPA1 / Fold change vs veh, HNRNPA1 / RFU, RNF170 / Fold change vs veh, RNF170 / RFU, ZNF28 / Fold change vs veh, ZNF28 / RFU, RNGTT / Fold change vs veh, RNGTT / RFU, OGT / Fold change vs veh, OGT / RFU, BRD1 / Fold change vs veh, BRD1 / RFU, MARS / Fold change vs veh, MARS / RFU, ZNF655 / Fold change vs veh, ZNF655 / RFU, FAHD1 / Fold change vs veh, FAHD1 / RFU, BDP1 / Fold change vs veh, BDP1 / RFU, LRRCC1 / Fold change vs veh, LRRCC1 / RFU, ARID1A / Fold change vs veh, ARID1A / RFU, ZNF146 / Fold change vs veh, ZNF146 / RFU, ZNF330 / Fold change vs veh, ZNF330 / RFU, GPN3 / Fold change vs veh, GPN3 / RFU, C9orf123 / Fold change vs veh, C9orf123 / RFU, N4BP2L2 / Fold change vs veh, N4BP2L2 / RFU, ARFIP1 / Fold change vs veh, ARFIP1 / RFU, FAM179B / Fold change vs veh, FAM179B / RFU, BCL10 / Fold change vs veh, BCL10 / RFU, UHRF1BP1L / Fold change vs veh, UHRF1BP1L / RFU, BET1 / Fold change vs veh, BET1 / RFU, CNOT2 / Fold change vs veh, CNOT2 / RFU, ZNF268 / Fold change vs veh, ZNF268 / Fold change vs veh, ZNF507 / RFU, DGCR2 / Fold change vs veh, DGCR2 / RFU, WDSUB1 / Fold change vs veh, WDSUB1 / Fold change vs veh, HSP90B1 /// MIR3652 / RFU, ADSS / Fold change vs veh, ADSS / RFU, GK / Fold change vs veh, GK / RFU, ZNF148 / Fold change vs veh, ZNF148 / RFU, TAF9 / Fold change vs veh, TAF9 / RFU, SLC1A5 / Fold change vs veh, SLC1A5 / RFU, SLMO2 / Fold change vs veh, SLMO2 / RFU, ABCC4 / Fold change vs veh, ABCC4 / RFU, LOC101060439 /// RAP1B / Fold change vs veh, LOC101060439 /// RAP1B / RFU, RFX7 / Fold change vs veh, RFX7 / RFU, GTPBP10 / Fold change vs veh, GTPBP10 / RFU, CNEP1R1 / Fold change vs veh, CNEP1R1 / RFU, BIVM-ERCC5 /// ERCC5 / Fold change vs veh, BIVM-ERCC5 /// ERCC5 / RFU, ILF3 / Fold change vs veh, ILF3 / RFU 11762660_at / Fold change /veh 11762660_at / RFU VCAN (11757783_s_at) / Fold change /veh VCAN (11757783_s_at) / RFU DDX43 (11728927_at) / Fold change /veh DDX43 (11728927_at) / RFU KRT8 (11758188_x_at) / Fold change /veh KRT8 (11758188_x_at) / RFU NKD1 (11759106_at) / Fold change /veh NKD1 (11759106_at) / RFU SRD5A1 (11742802_a_at) / Fold change /veh SRD5A1 (11742802_a_at) / RFU TPSAB1 /// TPSB2 (11721975_s_at) / Fold change /veh TPSAB1 /// TPSB2 (11721975_s_at) / RFU GSTM3 (11746129_a_at) / Fold change /veh GSTM3 (11746129_a_at) / RFU IL23R (11737362_x_at) / Fold change /veh IL23R (11737362_x_at) / RFU TMEM51 (11727254_a_at) / Fold change /veh TMEM51 (11727254_a_at) / RFU PIWIL2 (11732686_x_at) / Fold change /veh PIWIL2 (11732686_x_at) / RFU ORM1 (11744905_x_at) / Fold change /veh ORM1 (11744905_x_at) / RFU CCDC152 (11743942_at) / Fold change /veh CCDC152 (11743942_at) / RFU ECM1 (11717891_a_at) / Fold change /veh ECM1 (11717891_a_at) / RFU IL23R (11748794_a_at) / Fold change /veh IL23R (11748794_a_at) / RFU TNFAIP8L3 (11732012_x_at) / Fold change /veh TNFAIP8L3 (11732012_x_at) / RFU MBOAT4 (11741988_at) / Fold change /veh MBOAT4 (11741988_at) / RFU 11764193_at / Fold change /veh 11764193_at / RFU TMEM53 (11763286_at) / Fold change /veh TMEM53 (11763286_at) / RFU MAGEB2 (11727129_at) / Fold change /veh MAGEB2 (11727129_at) / RFU TMEM200A (11744735_a_at) / Fold change /veh TMEM200A (11744735_a_at) / RFU CCDC152 (11751479_a_at) / Fold change /veh CCDC152 (11751479_a_at) / RFU FAM211A (11726209_a_at) / Fold change /veh FAM211A (11726209_a_at) / RFU RGS16 (11746705_a_at) / Fold change /veh RGS16 (11746705_a_at) / RFU VCAN (11755009_s_at) / Fold change /veh VCAN (11755009_s_at) / RFU RHOB (11743442_s_at) / Fold change /veh RHOB (11743442_s_at) / RFU RGS16 (11720943_a_at) / Fold change /veh RGS16 (11720943_a_at) / RFU RGS16 (11720944_at) / Fold change /veh RGS16 (11720944_at) / RFU, VPS4B / Fold change vs veh, VPS4B / RFU, CREB1 / Fold change vs veh, CREB1 / RFU, DNAJC13 / Fold change vs veh, DNAJC13 / RFU, GNAQ / Fold change vs veh, GNAQ / RFU, CDK5R1 / Fold change vs veh, CDK5R1 / RFU, ZRANB3 / Fold change vs veh, ZRANB3 / RFU, CUL4A / Fold change vs veh, CUL4A / RFU, CCNY / Fold change vs veh, CCNY / RFU, UFL1 / Fold change vs veh, UFL1 / RFU, COG3 / Fold change vs veh, COG3 / RFU, DIAPH2 / Fold change vs veh, DIAPH2 / RFU, SKA2 / Fold change vs veh, SKA2 / RFU, AFF3 / Fold change vs veh, AFF3 / RFU, LMF1 / Fold change vs veh, LMF1 / RFU, IPO11 / Fold change vs veh, IPO11 / RFU, DFFB / Fold change vs veh, DFFB / RFU, FOXP1 / Fold change vs veh, FOXP1 / RFU, CARD8 / Fold change vs veh, CARD8 / RFU, STRN3 / Fold change vs veh, STRN3 / RFU, ADK / Fold change vs veh, ADK / RFU, RASSF2 / Fold change vs veh, RASSF2 / RFU, WIPF1 / Fold change vs veh, WIPF1 / RFU, LARP1B / Fold change vs veh, LARP1B / RFU, RASA1 / Fold change vs veh, RASA1 / RFU, RB1 / Fold change vs veh, RB1 / RFU, PPFIA1 / Fold change vs veh, PPFIA1 / RFU, MAT2A / Fold change vs veh, MAT2A / RFU, CCT5 / Fold change vs veh, CCT5 / RFU, WDR92 / Fold change vs veh, WDR92 / RFU, CUX1 / Fold change vs veh, CUX1 / RFU, TTC7A / Fold change vs veh, TTC7A / RFU, TMEM135 / Fold change vs veh, TMEM135 / RFU, DEPTOR / Fold change vs veh, DEPTOR / RFU, CPM / Fold change vs veh, CPM / RFU, DNAJB6 / Fold change vs veh, DNAJB6 / RFU, CACNA2D3 / Fold change vs veh, CACNA2D3 / RFU, DTX4 / Fold change vs veh, DTX4 / RFU, TFCP2 / Fold change vs veh, TFCP2 / RFU, GMCL1 /// GMCL1P1 / Fold change vs veh, GMCL1 /// GMCL1P1 / RFU, AEBP2 / Fold change vs veh, AEBP2 / RFU, SNHG1 /// SNORD22 /// SNORD25 /// SNORD26 /// SNORD27 /// SNORD28 /// SNORD29 /// SNORD31 / Fold change vs veh, SNHG1 /// SNORD22 /// SNORD25 /// SNORD26 /// SNORD27 /// SNORD28 /// SNORD29 /// SNORD31 / Fold change (Aza/veh), C12orf56 (ProbeSet 11735607_a_at) / Fold change (ACY-1035/veh), C12orf56 (ProbeSet 11735607_a_at) / Fold change (Aza/veh), FGFR1OP (ProbeSet 11751329_s_at) / Fold change (ACY-1035/veh), FGFR1OP (ProbeSet 11751329_s_at) / Fold change (Aza/veh), VPS36 (ProbeSet 11739960_a_at) / Fold change (ACY-1035/veh), VPS36 (ProbeSet 11739960_a_at) / RFU SYPL1 (11715823_x_at) / Fold change /veh SYPL1 (11715823_x_at) / RFU IGFBP7 (11715501_s_at) / Fold change /veh IGFBP7 (11715501_s_at) / RFU REEP3 (11722064_at) / Fold change /veh REEP3 (11722064_at) / RFU IGLL1 (11728026_x_at) / Fold change /veh IGLL1 (11728026_x_at): dose or concentration left out as unconfirmed
Settings: ProbeSet 11740528_a_at; LIST D

Structure (SMILES): Nc1ncn([C@@H]2O[C@H](CO)[C@@H](O)[C@H]2O)c(=O)n1 [azacitidine]
- RFU, AFF3: 349.86 RFU
